Experimental data: the NIST ThermoML archive (doi:10.1021/je300148f)

Conditions: Liquid, isochoric method

FC(F)(F)C(F)(F)C(F)(F)F [octafluoropropane]
Conditions	mass density [kg/m3]
203.51 K, 5337.7 kPa	1748.65
203.54 K, 25066 kPa	1795.66
207.93 K, 30528 kPa	1795.05
207.94 K, 10279 kPa	1747.98
212.07 K, 14905 kPa	1747.39
212.65 K, 36376 kPa	1794.41
216.5 K, 40978 kPa	1793.89
216.54 K, 1000.8 kPa	1689.31
216.88 K, 20281 kPa	1746.74
217.62 K, 2018.3 kPa	1689.13
218.87 K, 3201.2 kPa	1688.94
220.1 K, 4356.8 kPa	1688.75
221 K, 5191.7 kPa	1688.62
221.04 K, 25052 kPa	1746.18
225.96 K, 30368 kPa	1745.54
226.4 K, 10304 kPa	1687.87
230.5 K, 35314 kPa	1744.96
231.73 K, 15327 kPa	1687.19
234.92 K, 39898 kPa	1744.41
235.64 K, 915.8 kPa	1615.88
236.89 K, 20178 kPa	1686.54
237.72 K, 1980.7 kPa	1615.62
239.2 K, 3133.7 kPa	1615.41
240.32 K, 3992.9 kPa	1615.26
241.96 K, 25015 kPa	1685.92
241.97 K, 5288.2 kPa	1615.05
247.06 K, 29611 kPa	1685.32
248.4 K, 10248 kPa	1614.25
253.05 K, 1037.7 kPa	1548.82
253.35 K, 35422 kPa	1684.57
254.58 K, 2042.7 kPa	1548.62
254.84 K, 15219 kPa	1613.5
256.2 K, 3092.6 kPa	1548.41
257.67 K, 4032.3 kPa	1548.23
257.99 K, 39644 kPa	1684.03
259.38 K, 5163.9 kPa	1548.03
260.6 K, 5918.9 kPa	1547.89
261.38 K, 20247 kPa	1612.75
262.2 K, 6953.3 kPa	1547.71
264.92 K, 1305.5 kPa	1498.9
266.69 K, 2167.6 kPa	1498.5
267.42 K, 10407 kPa	1547.12
267.61 K, 24742 kPa	1612.07
268.4 K, 3123.5 kPa	1498.5
270.01 K, 4060.3 kPa	1498.31
272.1 K, 5218.8 kPa	1498.08
273.85 K, 29781 kPa	1611.39
274.19 K, 14632 kPa	1546.4
278.85 K, 1048.7 kPa	1431.66
280.31 K, 34598 kPa	1610.69
280.62 K, 9990.2 kPa	1497.18
280.96 K, 2016.5 kPa	1431.43
282.61 K, 20193 kPa	1545.52
283.12 K, 3037.6 kPa	1431.2
285.2 K, 4021.6 kPa	1430.98
287.19 K, 39685 kPa	1609.96
287.23 K, 4975.5 kPa	1430.78
289.39 K, 15154 kPa	1496.29
290.43 K, 25199 kPa	1544.72
294.19 K, 1027.2 kPa	1348.77
296.89 K, 2032 kPa	1348.25
298.14 K, 10127 kPa	1429.72
298.14 K, 10227 kPa	1432.13
298.15 K, 20139 kPa	1495.43
298.17 K, 30128 kPa	1543.94
299.56 K, 3026.3 kPa	1348.25
302.24 K, 4025.2 kPa	1348
305.19 K, 5144.5 kPa	1347.73
305.57 K, 34457 kPa	1543.21
306.47 K, 24759 kPa	1494.63
308.23 K, 15310 kPa	1431.18
313.2 K, 39261 kPa	1542.45
316.93 K, 30165 kPa	1493.65
318.2 K, 1978.9 kPa	1206.47
318.2 K, 2006.9 kPa	1206.47
318.2 K, 10061 kPa	1346.6
318.2 K, 19323 kPa	1427.89
318.2 K, 20116 kPa	1430.27
318.21 K, 9971.7 kPa	1346.6
322.1 K, 2987.3 kPa	1206.16
325.72 K, 35057 kPa	1492.81
326.06 K, 3974.1 kPa	1205.86
328.08 K, 24771 kPa	1429.38
329.83 K, 4928.6 kPa	1205.58
330.81 K, 14738 kPa	1345.54
332.72 K, 39008 kPa	1492.14
339.5 K, 7422.8 kPa	1204.86
341.2 K, 30200 kPa	1425.83
344.83 K, 20114 kPa	1344.37
353.16 K, 23269 kPa	1343.69
353.16 K, 35743 kPa	1424.77
353.17 K, 10953 kPa	1203.86
